Assay results from patent publication US10899710B2, “Pyridines and their use in the treatment of cancer” (The United States of America, as represented by the …, priority 2015, dated 2021).
Where a name gives a salt, the structure may show the parent alone. Read-outs that look alike come from different tables or passages of the source.

Columns and labels:
NCI-H322M = assay: Growth inhibition GI50, NCI-H322M; format: cell-based; details: Homo sapiens, Non-Small Cell Lung Cancer
Method: (§1) Cell lines were plated 2000 cells/well in 96-well black optical plates in the presence of 10% FBS media containing 25 nM selenite. The following day cells were treated with various concentrations of the compound of Example 1 (0.1% DMSO final) and incubated for 72 hrs. After the incubation Cell-Quanti Blue reagent was added to each well and incubated for additional 3 hrs. Fluorescence was read ex:530 nm/em:590 nm, and percent of viability was determined using DMSO vehicle and no cell (blank) controls.
(§2) Further results obtained in similar experiments were as indicated below (GI50 refers to concentration of compound yielding 50% growth inhibition; E denotes an exponent to the base 10).

UO-31 = assay: Growth inhibition GI50, UO-31; format: cell-based; details: Homo sapiens, Renal Cancer
Method: as §1, §2

SNB-75 = assay: Growth inhibition GI50, SNB-75; format: cell-based; details: Homo sapiens, CNS Cancer
Method: as §1, §2

SR = assay: Growth inhibition GI50, SR; format: cell-based; details: Homo sapiens, Leukemia
Method: as §1, §2

HCT-15 = assay: Growth inhibition GI50, HCT-15; format: cell-based; details: Homo sapiens, Colon Cancer
Method: as §1, §2

MDA-MB-231/ATCC = assay: Growth inhibition GI50, MDA-MB-231/ATCC; format: cell-based; details: Homo sapiens, Breast Cancer
Method: as §1, §2

OVCAR-3 = assay: Growth inhibition GI50, OVCAR-3; format: cell-based; details: Homo sapiens, Ovarian Cancer
Method: as §1, §2

SN12C = assay: Growth inhibition GI50, SN12C; format: cell-based; details: Homo sapiens, Renal Cancer
Method: as §1, §2

DU-145 = assay: Growth inhibition GI50, DU-145; format: cell-based; details: Homo sapiens, Prostate Cancer
Method: as §1, §2

NCI-H23 = assay: Growth inhibition GI50, NCI-H23; format: cell-based; details: Homo sapiens, Non-Small Cell Lung Cancer
Method: as §1, §2

SW-620 = assay: Growth inhibition GI50, SW-620; format: cell-based; details: Homo sapiens, Colon Cancer
Method: as §1, §2

HL-60(TB) = assay: Growth inhibition GI50, HL-60(TB); format: cell-based; details: Homo sapiens, Leukemia
Method: as §1, §2

NCI-H226 = assay: Growth inhibition GI50, NCI-H226; format: cell-based; details: Homo sapiens, Non-Small Cell Lung Cancer
Method: as §1, §2

OVCAR-8 = assay: Growth inhibition GI50, OVCAR-8; format: cell-based; details: Homo sapiens, Ovarian Cancer
Method: as §1, §2

M14 = assay: Growth inhibition GI50, M14; format: cell-based; details: Homo sapiens, Melanoma
Method: as §1, §2

HCT-116 = assay: Growth inhibition GI50, HCT-116; format: cell-based; details: Homo sapiens, Colon Cancer
Method: as §1, §2

SF-268 = assay: Growth inhibition GI50, SF-268; format: cell-based; details: Homo sapiens, CNS Cancer
Method: as §1, §2

SK-MEL-28 = assay: Growth inhibition GI50, SK-MEL-28; format: cell-based; details: Homo sapiens, Melanoma
Method: as §1, §2

LOX IMVI = assay: Growth inhibition GI50, LOX IMVI; format: cell-based; details: Homo sapiens, Melanoma
Method: as §1, §2

MALME-3M = assay: Growth inhibition GI50, MALME-3M; format: cell-based; details: Homo sapiens, Melanoma
Method: as §1, §2

NCI/ADR-RES = assay: Growth inhibition GI50, NCI/ADR-RES; format: cell-based; details: Homo sapiens, Ovarian Cancer
Method: as §1, §2

HCC-2998 = assay: Growth inhibition GI50, HCC-2998; format: cell-based; details: Homo sapiens, Colon Cancer
Method: as §1, §2

HOP-62 = assay: Growth inhibition GI50, HOP-62; format: cell-based; details: Homo sapiens, Non-Small Cell Lung Cancer
Method: as §1, §2

UACC-257 = assay: Growth inhibition GI50, UACC-257; format: cell-based; details: Homo sapiens, Melanoma
Method: as §1, §2

KM12 = assay: Growth inhibition GI50, KM12; format: cell-based; details: Homo sapiens, Colon Cancer
Method: as §1, §2

CAKI-1 = assay: Growth inhibition GI50, CAKI-1; format: cell-based; details: Homo sapiens, Renal Cancer
Method: as §1, §2

SK-MEL-2 = assay: Growth inhibition GI50, SK-MEL-2; format: cell-based; details: Homo sapiens, Melanoma
Method: as §1, §2

[1] = target: T1, recombinant thioredoxin reductase 1 (TrxR1) (Homo sapiens, UniProt Q16881); assay: Inhibition of recombinant TrxR1 (DTNB assay); format: biochemical; details: read-out: TrxR inhibition (IC50)
T1 sequence (Q16881 151-649 limits assumed): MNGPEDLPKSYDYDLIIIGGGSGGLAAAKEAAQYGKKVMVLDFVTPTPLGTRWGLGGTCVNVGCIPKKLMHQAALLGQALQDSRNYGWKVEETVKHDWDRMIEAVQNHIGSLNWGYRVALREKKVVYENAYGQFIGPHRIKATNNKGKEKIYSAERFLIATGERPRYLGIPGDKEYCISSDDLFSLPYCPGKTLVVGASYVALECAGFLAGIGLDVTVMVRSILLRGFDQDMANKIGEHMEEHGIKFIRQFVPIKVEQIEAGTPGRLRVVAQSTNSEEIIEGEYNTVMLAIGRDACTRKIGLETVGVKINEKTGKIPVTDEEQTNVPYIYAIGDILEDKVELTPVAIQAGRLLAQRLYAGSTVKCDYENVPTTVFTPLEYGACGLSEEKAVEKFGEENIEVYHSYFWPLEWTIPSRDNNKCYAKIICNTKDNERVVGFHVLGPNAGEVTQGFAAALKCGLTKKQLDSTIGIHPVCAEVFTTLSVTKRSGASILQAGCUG
Method: Small molecule inhibition of recombinant thioredoxin reductase 1 (TrxR1) and gluthathione reductase (GR) was examined in 96-well plate format. 15 nM TrxR1 was incubated in the presence of 250 μM NADPH, 0.1 mg/ml BSA, and various concentrations of the compound of Example 1 (1% DMSO final) in 50 mM Tris (pH 7.5) and 2 mM EDTA buffer for 15 minutes. Following the incubation period, 2.5 mM DTNB was added to each well and the change in O.D. at 412 nm was followed. Percent activity was determined using DMSO vehicle and no TrxR1 (blank) controls. 2 nM GR was incubated in the presence of 250 μM NADPH, 0.1 mg/ml BSA, and various concentrations of compounds (1% DMSO final) in 50 mM Tris (pH 7.5) and 2 mM EDTA buffer for 15 minutes. Following the incubation period, 1 mM GSSG was added to each well and the change in O.D. at 340 nm was followed. Percent activity was determined using DMSO vehicle and no GR (blank) controls.

[2] = mouse, in vivo, iv, 10 mg/kg
Method: Fox Chase male severe combined immunodeficiency (SCID, Charles River, #250) mice were inoculated with 1×10^6 FaDu cells in PBS at a pre-shaved region located at the anterior lateral thoracic wall. After 13 days of growth, tumors were caliper measured and treatments were initiated. […] Mouse health status was monitored daily, weight was measured, and tumor volume was recorded from caliper measurements.

U251 = assay: Growth inhibition GI50, U251; format: cell-based; details: Homo sapiens, U-251, CNS Cancer
Method: as §1, §2

SF-295 = assay: Growth inhibition GI50, SF-295; format: cell-based; details: Homo sapiens, CNS Cancer
Method: as §1, §2

BT-549 = assay: Growth inhibition GI50, BT-549; format: cell-based; details: Homo sapiens, Breast Cancer
Method: as §1, §2

COc1ccc([N+](=O)[O-])c(S(=O)(=O)c2ccc(Cl)cc2)n1 [Example 1, 2-((4-Chlorophenyl)sulphonyl)-6-methoxy-3-nitropyridine Hydrochloride] showed a GI50 (NCI-H322M) of 20.4 µM, a GI50 (UO-31) of 2970 nM and a GI50 (SNB-75) of 11 µM. For the same compound, the GI50 (SR) was 2990 nM, the GI50 (HCT-15) was 2050 nM and the GI50 (MDA-MB-231/ATCC) was 2830 nM. It also gave a GI50 (OVCAR-3) of 2330 nM, a GI50 (SN12C) of 3.82 µM and a GI50 (DU-145) of 9.63 µM. For the same compound, the GI50 (NCI-H23) was 4.58 µM, the GI50 (SW-620) was 2060 nM and the GI50 (HL-60(TB)) was 6.81 µM. It also gave a GI50 (NCI-H226) of 10.2 µM, a GI50 (OVCAR-8) of 3.67 µM and a GI50 (M14) of 3.05 µM. The GI50 (HCT-116) was 2900 nM, the GI50 (SF-268) was 4.57 µM and the GI50 (SK-MEL-28) was 3.57 µM. For the same compound, the GI50 (LOX IMVI) was 1980 nM, the GI50 (MALME-3M) was 2000 nM and the GI50 (NCI/ADR-RES) was 4.93 µM. For the same compound, the GI50 (HCC-2998) was 8.38 µM, the GI50 (HOP-62) was 16.6 µM and the GI50 (UACC-257) was 11.3 µM. The GI50 (KM12) was 14 µM, the GI50 (CAKI-1) was 1610 nM and the GI50 (SK-MEL-2) was 11.4 µM. The IC50 ([1]; Biological Example 1, 15 nM TrxR1, 15 minutes incubation) was 12 nM, the IC50 ([1]; Biological Example 4) was 21 nM and the “Signs of general or systemic toxic effects” value [2] was “no overt signs of general or systemic toxic effects”. For the same compound, the GI50 (U251) was 8.69 µM, the GI50 (SF-295) was 13.1 µM and the GI50 (BT-549) was 2750 nM.
